Earlier results as cited in patent publication US20260272891A1, “TREATMENT OF AUTOIMMUNE DISEASES AND CANCER WITH PROTEASE INHIBITORS” (Lundquist Institute for Biomedical Innovation at …, priority 2023, published 2026).

Tested on: all variants of concern, including Omicron and its variants
Settings: cited from earlier work

## CC(C)(C)[C@H](NC(=O)C(F)(F)F)C(=O)N1C[C@H]2[C@@H]([C@H]1C(=O)N[C@H](C#N)C[C@@H]1CCNC1=O)C2(C)C [NMV, nirmatrelvir]
  antiviral activity: antiviral activity against all variants of concern
